Measured values reported in patent EP0009702A1, “A phenylalkylaminoethylsalicylamide, its preparation and pharmaceutical compositions containing it” (SCHERING CORPORATION, priority 1978, dated 1980).

Experiments:
β-adrenergic receptors [1] = conditions: as disclosed in British patent specifications 1,541,932 and 1,541,933; cited from earlier work
β-adrenergic receptors [2] = assay: β-adrenergic blocking potency, animal tests; assay type: in vivo; conditions: for β-blocking potency: relative to labetalol (assigned value 1.0), animal tests
Source text: (§1) The a- and β-blocking activities discussed earlier in this specification can be determined by known methods, e.g. by those of Farmer et.al., Brit. J. Pharm., 45, 660 (1972); Robson, J. Pharm. Exp. Therap., 175, 157 (1970), and Levy, Arch. Int. Pharmacodyn. Ther., 204,. 143 (197-3).

a-adrenergic receptors = assay: α-adrenergic blocking potency, animal tests; assay type: in vivo; conditions: relative to labetalol (assigned value 1.0)
Source text: as §1

[3] = antihypertensive activity, laboratory tests, oral dosing; assay type: in vivo; conditions: result in words
[4] = toxicity at therapeutic doses; assay type: in vivo
[5] = direct peripheral vasodilation activity; assay type: in vivo; conditions: compared with labetalol

a-blocking potency (a-adrenergic receptors) | ratio of the β-adrenergic blocking potency to the a-adrenergic blocking potency (β-adrenergic receptors [2]; compared with labetalol) | Compound | β-adrenergic blocking activity (β-adrenergic receptors [1]) | β-blocking potency (β-adrenergic receptors [2]) | antihypertensive activity [3] | toxicity [4] | direct peripheral vasodilation activity [5]
– | – | CC(CCc1ccccc1)NCC(O)c1ccc(O)c(C(N)=O)c1 (racemic) [diastereoisomer A] | strongly reduced | – | – | – | –
half | – | C[C@H](CCc1ccccc1)NC[C@H](O)c1ccc(O)c(C(N)=O)c1 (racemic) [diastereoisomer B, reference compound] | – | not significantly different from that of labetalol | – | – | –
about one third | greatly and unexpectedly increased | C[C@H](CCc1ccccc1)NC[C@H](O)c1ccc(O)c(C(N)=O)c1 (single isomer, unassigned; isomer 5) [(R,R) optical isomer] | – | about twelve times | potent antihypertensive activity | substantially non-toxic | greater direct peripheral vasodilation activity than labetalol
